Laboratory results reported in patent publication US8921394B2, “Prolylcarboxypeptidase inhibitors” (Merck Sharp & Dohme Corp., priority 2010, dated 2014).
Where a name gives a salt, the structure may show the parent alone. Read-outs that look alike come from different tables or passages of the source.

Key:
human PrCP = molecular target: T1, human PrCP (Homo sapiens, UniProt P42785); assay: Prolylcarboxypeptidase (PRCP) enzyme activity assay, fluorescence intensity kinetic assay; assay type: biochemical
T1 construct: made in house
T1 sequence (P42785 46-496): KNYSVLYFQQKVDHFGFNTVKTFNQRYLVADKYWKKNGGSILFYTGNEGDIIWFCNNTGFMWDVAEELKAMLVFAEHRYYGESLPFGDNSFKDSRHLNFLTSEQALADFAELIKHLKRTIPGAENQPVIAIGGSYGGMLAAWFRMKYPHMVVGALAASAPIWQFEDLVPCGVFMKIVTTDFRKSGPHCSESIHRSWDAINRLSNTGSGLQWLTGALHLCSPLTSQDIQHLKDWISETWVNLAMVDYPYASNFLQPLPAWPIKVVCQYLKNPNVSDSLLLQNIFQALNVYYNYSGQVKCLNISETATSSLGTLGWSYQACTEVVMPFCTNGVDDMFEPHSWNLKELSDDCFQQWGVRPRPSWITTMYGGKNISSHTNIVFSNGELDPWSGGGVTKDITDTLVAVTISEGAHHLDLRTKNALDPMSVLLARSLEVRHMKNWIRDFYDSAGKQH
Procedure: The potency of compounds of formula I against PrCP was determined by a fluorescence intensity kinetic assay measuring the IC50 values of PrCP inhibitor test compounds. […] The assay was run on a Perkin. […] The assay was performed using a Hamilton Star liquid handling workstation. The assay employed the internally quenched fluorescent substrate (1S)-1-carboxy-5-[(2,4-dinitrophenyl)amino]pentyl [(7-methoxy-2-oxo-2H-chromen-4-yl)acetyl]-L-alanyl-L-prolinate prepared in house. The assay was run in a 384-well microtiter plate at 37° C. with a total volume of 50 uL. […] The assay also contained 2% DMSO used to solubilize the substrate and inhibitor. Inhibitors were prepared in 100% DMSO and serial diluted (in 100% DMSO) to generate 11 point titration curves. Either 39 uL of human or mouse PrCP enzyme was added to the wells of the assay plate, followed by a 1 uL addition of the serially diluted inhibitor and mixed three times using a 30 uL mix volume. The reaction was initiated by the addition of 10 uL substrate and mixed three times using a 30 uL mix volume. The reactions were monitored continuously over 25 min at 37° C. to obtain initial velocities. IC50 values were calculated by comparing the resulting rates of reaction of the inhibited and control initial velocities.
The enzymes were diluted in a mixture of 10 mM NaOAc (pH 5.5)/100 mM NaCl buffer containing 25 ug/mL bovine serum albumin that had been warmed to 37° C. in a water bath. The PrCP inhibitor test compounds were plated in 100% DMSO with a highest concentration of 500 uM. There were 12 dilution points for each compound tested including a blank with DMSO only. […] Likewise, two control compounds were similarly titrated and included in each assay, with final starting concentrations starting at 10,000 nM and 200 nM, respectively. […] The substrate was solubilized in 100% DMSO prior to dilution into the assay.

[1] = intracerebroventricular to rats; cited from earlier work
[2] = systemic administration to obese, leptin deficient mice; cited from earlier work
[3] = recombinant human PrCP, cell line CHO, read-out: Human PRCP Enzyme Inhibition IC50

Fc1ccc(-c2cc([C@@H]3CCN(CCc4ccccc4)C[C@H]3c3ccc(F)cc3)n[nH]2)cc1 (relative stereo) [Example 11, (3R*,4R*)-3-(4-fluorophenyl)-4-[5-(4-fluorophenyl)-1H-pyrazol-3-yl]-1-phenethyl-piperidine trifluoroacetate salt]
IC50 (human PrCP; [3]): 0.0023 µM

N#Cc1cccc(-c2cc([C@@H]3CCN(CCc4ccccc4)C[C@H]3c3ccc(F)cc3)n[nH]2)c1 (relative stereo) [Example 12, 3-[3-[(3R*,4R*)-3-(4-fluorophenyl)-1-phenethyl-4-piperidyl]-1H-pyrazol-5-yl]benzonitrile triflizoroacetate salt]
IC50 (human PrCP; [3]): 0.0079 µM

Fc1ccc([C@@H]2CN(CCc3ccccc3)CC[C@H]2c2n[nH]c(-c3ccc(Cl)cc3)n2)cc1 (relative stereo) [Example 20, (3R*,4R*)-4-[5-(4-chlorophenyl)-1H-1,2,4-triazol-3-yl]-3-(4-fluorophenyl)-1-phenethyl-piperidine trifluoroacetate salt]
IC50 (human PrCP; [3]): 0.0509 µM

Cn1nc(C2(c3ccccn3)CCN(CCc3ccccc3)CC2)cc1-c1ccc(F)cc1 [Example 3, 2-[4-[5-(4-fluorophenyl)-1-methyl-pyrazol-3-yl]-1-phenethyl-4-piperidyl]pyridine bis(trifluoroacetate) salt]
IC50 (human PrCP): 0.498 µM

Clc1ccc(CCN2CCC(c3ccccc3)(c3cc(-c4ccc(Cl)cc4)[nH]n3)CC2)cc1 [Example 6, 1-[2-(4-chlorophenyl)ethyl]-4-[5-(4-chlorophenyl)-1H-pyrazol-3-yl]-4-phenyl-piperidine trifluoroacetate salt]
IC50 (human PrCP): 0.175 µM

CC(C)(C)N1C[C@@H](c2cc(-c3ccc(Cl)cc3)[nH]n2)[C@H](c2ccc(F)cc2F)C1 [Example 13, 3-[(3S,4R)-1-tert-butyl-4-(2,4-difluorophenyl)pyrrolidin-3-yl]-5-(4-chlorophenyl)-1H-pyrazole trifluoroacetate salt]
IC50 (human PrCP; recombinant human PrCP, cell line HEK, read-out: Human PRCP Enzyme Inhibition IC50): 0.413 µM

t-butyl carbamate-prolyl prolinal [BPP]
overnight food intake [1]: suppression of overnight food intake | overnight food intake [2]: suppression of overnight food intake
